Measurements: article PMC9867241, “Antioxidant and Cytotoxic Activity of New Polyphenolic Derivatives of Quinazolin-4(3H)-one: Synthesis and In Vitro Activities Evaluation” (Pharmaceutics, 2022)
Values after ≈ are worked out from the molar mass of the structure shown.

Legend:
[1] = ABTS˙+ radical scavenging assay
Description: The stock solutions (1 mg/mL) of the tested compounds and the controls were obtained, by dissolving the substances in dimethyl sulfoxide (DMSO). Using Jasco V-530, an UV-VIS spectrophotometer (Jasco International Co., Ltd., Tokyo, Japan), we performed the colorimetric determinations in low-volume single-use 10 mm width cuvettes.
The assays were performed in triplicate and the results are presented as averages for each assay.

[2] = Ferric reducing antioxidant potential (FRAP) assay; design: concentration or dose not given beside the values; conditions: for FRAP, % of Activity of Trolox: relative to Trolox; for FRAP, % of Activity of Ascorbic Acid: relative to ascorbic acid
Description: In the ferric reducing antioxidant potential (FRAP) assay, in comparison with a blank sample prepared from DMSO mixed with FRAP reagent, the absorbance of the solutions was measured at λ = 593 nm. The compounds were tested according to a modified method proposed initially by Benzie and Strain [31]. Using Equation (4), we calculated the reducing antioxidant potential of 5a–d and 6a–d as a percentage of the activity of the reference compounds:(4) % of control activity=sample absorbance/reference absorbance×100
Ferrous ions resulting from the reduction of ferric ions in the presence of an antioxidant compound form a blue-colored complex (Fe^2+-TPTZ) at pH = 3.6 with tripyridyltriazine (2,4,6-tris(2-pyridyl)-s-triazine). The intensity of the blue complex formed is proportional to the number of ferrous ions. Compounds 5a, 5c and 5d expressed a good electron donation capacity.

[3] = Phosphomolybdate assay for total antioxidant capacity (TAC); design: concentration or dose not given beside the values; conditions: for TAC, % of Activity of Trolox: relative to Trolox; for TAC, % of Activity of Ascorbic Acid: relative to ascorbic acid
From the text: Using the phosphomolybdate assay, we determined the total antioxidant capacity (TAC) of the tested compounds. We measured the solutions’ absorbances against a blank sample at λ = 695 nm, using a previously reported procedure by our group, based on initial literature reports. Using Equation (4), we calculated the TAC of 5a–d and 6a–d compounds.
At acidic pH, the tested compounds transfer one electron to Mo^6+ to reduce it to Mo^5+.

[4] = Cu^2+ chelation assay (murexide competition)
From the text: With murexide as a chromophoric chelator, we performed the protocol followed for the evaluation of Cu^2+ chelating activities of the compounds using an adaptation of the method presented by Cesari et al. and Wu et al.. Using Equation (6), we calculated the copper chelation capacities of the 5a–d and 6a–d compounds:(6) copper chelation (%)=(A485/A520)control−(A485/A520)sample/(A485/A520)control×100
The evaluation of the Cu^2+ chelation activity of compounds was made based on the competition for Cu^2+ with murexide. The chelating activity of compounds for the cupric ions found in the current assay is significant for the pyrogallol derivatives, being quite close to EDTA-Na2.

[5] = system: normal human foreskin fibroblasts (BJ); assay: Cytotoxicity, Alamar blue assay, BJ cells; assay type: cell-based; conditions: Homo sapiens, Fibroblast; 24 h exposure, Alamar blue
From the text: Normal human foreskin (BJ) fibroblasts and two types of cancer cells, namely A549 (lung adenocarcinoma) and LNCaP (prostate carcinoma) purchased from American Type Culture Collection (Manassas, VA, USA), were used in the experiments. Each cell line was maintained in a different culture medium, depending on the metabolic necessities of the cells. BJ cells were maintained in Dulbecco’s modified Eagle’s medium (DMEM) with low glucose. A549 cells were maintained in DMEM with high glucose […], while LNCaP cells were grown in Roswell Park Memorial Institute (RPMI) 1640 medium with high glucose (5 g/L). All media used were supplemented with 10% fetal bovine serum (FBS) and were refreshed every two days. Cells were used in experiments or subcultured when they reached 70–80% confluence.
In 100 µL in 96-well plates, a number of 30,000 LNCaP cells, 15,000 A549 cells, and 7500 normal (BJ) cells were seeded. Because the cells have different sizes and volumes, the purpose of the different seedings was to achieve a confluency of 70–80% after 24 h. All types of cells were further exposed to the synthesized compounds (5a–d and 6a–d) for 24 h, at a concentration ranging from 12.5 to 100 µg/mL. Post-exposure, the media were removed, and the cells were washed with phosphate buffer saline (PBS). Their viability was evaluated using Alamar blue (AB) assay as previously described. Briefly, the cells were incubated with a 200 µM resazurin solution for 4 h. Using a Synergy 2 multi-mode microplate reader, we measured the fluorescence. The measurement was performed at λexcitation = 530/25 nm; λemission = 590/35 nm. We conducted the experiments using three biological replicates, each one including 6 technical replicates. As negative controls (NC), cells exposed to culture medium containing 0.2% DMSO were used. Compared to the NC (100%), the results were expressed as relative values. We used IC50 values for the potency evaluation, and calculated them for each cell line, using the dose-effect curves obtained by fitting the experimental data with a 4-parameter logistic curve.
Mean values ± standard deviation (SD) values of at least three biological replicates were used to calculate experimental data. One-way analysis of variance (ANOVA) with a post hoc Holm–Sidak test was used to statistically examine the data. Using SigmaPlot 11.0 software (Systat, Software Inc., Chicago, IL, USA), we performed the graphical display and data analysis. From a statistical point of view, the results were considered different, at values of p < 0.05.

SMILES	IC50 [1] [µM]	IC50 (ABTS˙^+ scavenging) [1] [µg/mL]	melting point [°C]	% of ABTS˙^+ Scavenging ([1]; 0.83 µg/mL) [%]	% of ABTS˙^+ Scavenging ([1]; 1.67 µg/mL) [%]	% of ABTS˙^+ Scavenging ([1]; 3.33 µg/mL) [%]	% of ABTS˙^+ Scavenging ([1]; 4.99 µg/mL)	% of ABTS˙^+ Scavenging ([1]; 6.66 µg/mL)	% of ABTS˙^+ Scavenging ([1]; 9.99 µg/mL)	% of ABTS˙^+ Scavenging ([1]; 13.32 µg/mL)	FRAP, % of Activity of Trolox [2] [%]	FRAP, % of Activity of Ascorbic Acid [2] [%]	TAC, % of Activity of Trolox [3] [%]	TAC, % of Activity of Ascorbic Acid [3] [%]	Cupric ions Chelation Capacity (%) ([4]; 3.36 µg/mL)	Cupric ions Chelation Capacity (%) ([4]; 8.40 µg/mL)	Cupric ions Chelation Capacity (%) ([4]; 16.80 µg/mL)	IC50 [5] [µg/mL]
C=CCn1c(SCC(=O)NN=C(C)c2ccc(O)cc2O)nc2ccccc2c1=O [Compound 6a, 2-((3-Allyl-4-oxo-3,4-dihydroquinazolin-2-yl)thio)-N’-(1-(2,4-dihydroxyphenyl)ethylidene)acetohydrazide]	16.9	7.17 (≈ 16.9 µM)	230	27.03	30.08	37.19	42.27%	50.03%	60.55%	70.24%	26.17	22.81	94.38	48.91	10.96	20.64	31.79	> 100
CCCCn1c(SCC(=O)NN=C(C)c2ccc(O)cc2O)nc2ccccc2c1=O [Compound 6d, 2-((3-butyl-4-oxo-3,4-dihydroquinazolin-2-yl)thio)-N’-(1-(2,4-dihydroxyphenyl)ethylidene)acetohydrazide]	11.7	5.17 (≈ 11.7 µM)	225	29.08	33.32	40.37	50.24%	57.59%	75.41%	85.79%	27.95	24.36	76.63	39.72	5.98	11.84	20.42	> 100
CC(=NNC(=O)CSc1nc2ccccc2c(=O)n1Cc1ccccc1)c1ccc(O)cc1O [Compound 6b, 2-((3-Benzyl-4-oxo-3,4-dihydroquinazolin-2-yl)thio)-N’-(1-(2,4-dihydroxyphenyl)ethylidene)acetohydrazide]	8.7	4.13 (≈ 8.7 µM)	–	26.26	33.32	44.60	55.88%	68.23%	90.98%	+ (+ represents more than 95%)	21.24	18.51	101.03	52.36	6.77	17.17	30.49	> 100

The remaining compounds from weak to strong by IC50 [1], led by results:

IC50 [1] [µM]	IC50 (ABTS˙^+ scavenging) [1] [µg/mL]	melting point [°C]	SMILES	% of ABTS˙^+ Scavenging ([1]; 0.83 µg/mL) [%]	% of ABTS˙^+ Scavenging ([1]; 1.67 µg/mL) [%]	% of ABTS˙^+ Scavenging ([1]; 3.33 µg/mL) [%]	% of ABTS˙^+ Scavenging ([1]; 4.99 µg/mL)	% of ABTS˙^+ Scavenging ([1]; 6.66 µg/mL)	% of ABTS˙^+ Scavenging ([1]; 9.99 µg/mL)	% of ABTS˙^+ Scavenging ([1]; 13.32 µg/mL)	FRAP, % of Activity of Trolox [2] [%]	FRAP, % of Activity of Ascorbic Acid [2] [%]	TAC, % of Activity of Trolox [3] [%]	TAC, % of Activity of Ascorbic Acid [3] [%]	Cupric ions Chelation Capacity (%) ([4]; 3.36 µg/mL)	Cupric ions Chelation Capacity (%) ([4]; 8.40 µg/mL)	Cupric ions Chelation Capacity (%) ([4]; 16.80 µg/mL)	IC50 [5] [µg/mL]
9.84	4.06 (≈ 9.84 µM)	–	CCn1c(SCC(=O)NN=C(C)c2ccc(O)cc2O)nc2ccccc2c1=O [Compound 6c, N’-(1-(2,4-dihydroxyphenyl)ethylidene)-2-((3-ethyl-4-oxo-3,4-dihydroquinazolin-2-yl)thio)acetohydrazide]	29.08	34.73	43.19	54.47%	68.58%	91.60%	+ (+ represents more than 95%)	29.65	25.85	110.05	57.03	7.47	16.75	26.72	> 100
4.01	1.91 (≈ 4.01 µM)	228	O=C(CSc1nc2ccccc2c(=O)n1Cc1ccccc1)NN=Cc1ccc(O)c(O)c1O [Compound 5b, 2-((3-Benzyl-4-oxo-3,4-dihydroquinazolin-2-yl)thio)-N’-(2,3,4-trihydroxybenzylidene)acetohydrazide]	34.65	49.32	68.62	85.98%	+ (+ represents more than 95%)	+ (+ represents more than 95%)	+ (+ represents more than 95%)	76.93	67.05	156.96	81.34	11.17	25.27	40.20	> 100
3.87	1.65 (≈ 3.87 µM)	213	C=CCn1c(SCC(=O)NN=Cc2ccc(O)c(O)c2O)nc2ccccc2c1=O [Compound 5a, 2-((3-Allyl-4-oxo-3,4-dihydroquinazolin-2-yl)thio)-N’-(2,3,4-trihydroxybenzylidene)acetohydrazide]	38.14	51.47	72.00	+ (+ represents more than 95%)	+ (+ represents more than 95%)	+ (+ represents more than 95%)	+ (+ represents more than 95%)	98.88	86.18	176.42	91.43	20.33	30.76	40.29	> 100
3.5	1.55 (≈ 3.5 µM)	239	CCCCn1c(SCC(=O)NN=Cc2ccc(O)c(O)c2O)nc2ccccc2c1=O [Compound 5d, 2-((3-Butyl-4-oxo-3,4-dihydroquinazolin-2-yl)thio)-N’-(2,3,4-trihydroxybenzylidene)acetohydrazide]	41.98	52.25	67.46	81.06%	+ (+ represents more than 95%)	+ (+ represents more than 95%)	+ (+ represents more than 95%)	92.71	80.80	117.87	61.09	14.19	28.04	41.42	> 100
